Measurements reported in paper PMC7578299, “The antiviral effects of baloxavir marboxil against influenza A virus infection in ferrets” (Influenza and Other Respiratory Viruses, 2020).
Where “and” joins values, the source holds several entries; their conditions need not be identical. Equal values may be shown once. Read-outs that look alike come from different tables or passages of the source.

What was measured:
[1] = Pharmacokinetic analysis in ferrets after a single oral administration of BXM; assay type: in vivo, ferret
Experimental: One day prior to administration, group assignment was carried out taking body weight into account. Under isoflurane anesthesia, fasted ferrets (four per group) received BXM (10 or 30 mg/5 mL/kg) suspension orally using an intragastric tube. Blood samples were collected at 0.5, 1, 2, 4, 6, 8, and 24 hours after single oral administration of BXM and centrifuged to obtain plasma. The concentrations of BXA and BXM in plasma were determined by liquid chromatography‐tandem mass spectrometry (LC‐MS/MS). The lower limit of quantification of BXA and BXM in ferret plasma was 0.5 ng/mL. The pharmacokinetic parameters of BXA and BXM were calculated using non‐compartmental analysis module in Phoenix WinNonlin software (version 8.0; Certara LP) (https://onlinehelp.certara.com/phoenix/8.2/topics/nca.htm) based on a non‐compartment model analysis with uniform weighting.

[2] = Stability in plasma, human; assay type: in vitro ADME; details: incubation of BXM; for % Residual in plasma (BXA, calculated from BXM concentration at 0 min as molar concentration): mean of duplicate; for % Residual in plasma Individual value (BXA, from BXM concentration at 0 minutes as molar concentration): duplicates
Experimental: (§1) Approximately 30 mL of blood from Japanese male healthy volunteers was collected and centrifuged to obtain plasma. Blood samples from ferrets, rats, dogs, and monkeys were collected under anesthesia and centrifuged to obtain plasma. BXM was added to reach a final concentration of 200 ng/mL to all pooled plasma samples per species. After incubation for 5, 15, and 30 minutes at 37°C, twofold volume of ice‐cold acetonitrile/methanol (1:1, v/v) was added to the plasma samples to stop further reactions, which were then centrifuged at 1800 g for 10 minutes prior to LC‐MS/MS analysis of BXM in the supernatants.

[3] = Stability in plasma, ferret; assay type: in vitro ADME; details: incubation of BXM; for % Residual in plasma (BXA, calculated from BXM concentration at 0 min as molar concentration): mean of duplicate; for % Residual in plasma Individual value (BXA, from BXM concentration at 0 minutes as molar concentration): duplicates
Experimental: as §1

Stability in plasma, rat = assay type: in vitro ADME; details: incubation of BXM; for % Residual in plasma (BXA, calculated from BXM concentration at 0 min as molar concentration): mean of duplicate; for % Residual in plasma Individual value (BXA, from BXM concentration at 0 minutes as molar concentration): duplicates
Experimental: as §1

Stability in plasma, dog = assay type: in vitro ADME; details: incubation of BXM; for % Residual in plasma (BXA, calculated from BXM concentration at 0 min as molar concentration): mean of duplicate; for % Residual in plasma Individual value (BXA, from BXM concentration at 0 minutes as molar concentration): duplicates
Experimental: as §1

[4] = Stability in plasma, monkey; assay type: in vitro ADME; details: incubation of BXM; for % Residual in plasma (BXA, calculated from BXM concentration at 0 min as molar concentration): mean of duplicate; for % Residual in plasma Individual value (BXA, from BXM concentration at 0 minutes as molar concentration): duplicates
Experimental: as §1

[5] = design: method as in Koshimichi et al., J Pharm Sci 2019;108:1896–1904; details: Japanese patients, ref Koshimichi et al., J Pharm Sci 2019;108:1896–1904, cited from earlier work
[6] = 5% SDS water vs 0.5% MC, BXM 10 mg/kg
[7] = single oral BXM 10 mg/kg, 0.5% MC vehicle, mean of three ferrets
[8] = single oral BXM 10 mg/kg, 5% SDS water vehicle, mean of four ferrets
[9] = single oral BXM 10 mg/kg, individual ferrets (Ferret-01 to Ferret-04)
[10] = single oral BXM 10 mg/kg, mean of four ferrets
[11] = single oral BXM 30 mg/kg, 5% SDS water vehicle, mean of four ferrets
[12] = single oral BXM 30 mg/kg, individual ferrets (Ferret-05 to Ferret-08)
[13] = single oral BXM 30 mg/kg, mean of four ferrets

O=C1c2c(O)c(=O)ccn2N([C@@H]2c3ccccc3SCc3c2ccc(F)c3F)[C@@H]2COCCN12 [BXA, baloxavir acid]
AUC0-24hr, Ratio to 0.5% MC [1, 6]: 7.0
C24hr, Ratio to 0.5% MC [1, 6]: 13.6
Cmax, Ratio to 0.5% MC [1, 6]: 4.2
T1/2, Ratio to 0.5% MC [1, 6]: 1.5
Tmax, Ratio to 0.5% MC [1, 6]: 3.0
AUC0-24hr [1, 7]: 60.2 ng·h/mL
C24hr [1, 7]: 0.223 ng/mL
Cmax [1, 7]: 15.8 ng/mL
T1/2 [1, 7]: 4.60 h
Tmax [1, 7]: 0.50 h
AUC0-24 h [1, 8]: 421 ± 119 ng·h/mL
C 24 h [1, 8]: 3.03 ± 2.33 ng/mL and 3.03 ng/mL
C max [1, 8]: 66.6 ± 14.6 ng/mL
T 1/2 (terminal elimination half-life) [1, 8]: 6.91 ± 3.79 h
T max [1, 8]: 1.50 ± 0.58 h
AUC0-24hr, individual data [1, 9]: 292 ng·h/mL and 576 ng·h/mL and 439 ng·h/mL and 378 ng·h/mL
C24hr, individual data [1, 9]: 0.792 ng/mL and 3.90 ng/mL and 1.52 ng/mL and 5.90 ng/mL
Cmax, individual data [1, 9]: 59.4 ng/mL and 80.1 ng/mL and 77.3 ng/mL and 49.5 ng/mL
T1/2, individual data [1, 9]: 4.21 h and 6.47 h and 4.57 h and 12.4 h
Tmax, individual data [1, 9]: 1.00 hr (2×) and 2.00 hr (2×)
AUC0-24 h [1, 10]: 0.871 ± 0.246 µM·h
C 24 h [1, 10]: 6.26 ± 4.82 nM
Cmax ([1]; single oral BXM 10 mg/kg, mean of four ferrets, read-out: C max): 138 ± 30 nM
AUC0-24 h [1, 11]: 3240 ± 3240 ng·h/mL
C 24 h [1, 11]: 9.91 ± 8.77 ng/mL and 9.91 ng/mL
C max [1, 11]: 365 ± 316 ng/mL
T 1/2 (terminal elimination half-life) [1, 11]: 4.44 ± 0.67 h
T max [1, 11]: 2.00 ± 1.41 h
AUC0-24hr, individual data [1, 12]: 7580 ng·h/mL and 3840 ng·h/mL and 1040 ng·h/mL and 508 ng·h/mL
C24hr, individual data [1, 12]: 21.3 ng/mL and 12.3 ng/mL and 3.38 ng/mL and 2.64 ng/mL
Cmax, individual data [1, 12]: 754 ng/mL and 489 ng/mL and 128 ng/mL and 89.6 ng/mL
T1/2, individual data [1, 12]: 3.90 h and 4.32 h and 4.12 h and 5.41 h
Tmax, individual data [1, 12]: 1.00 hr (2×) and 4.00 hr and 2.00 hr
AUC0-24 h [1, 13]: 6.71 ± 6.71 µM·h
C 24 h [1, 13]: 20.5 ± 18.2 nM
Cmax ([1]; single oral BXM 30 mg/kg, mean of four ferrets, read-out: C max): 755 ± 653 nM
% Residual in plasma (BXA, calculated from BXM concentration at 0 min as molar concentration) ([2]; 10 min): 8.3%
% Residual in plasma Individual value (BXA, from BXM concentration at 0 minutes as molar concentration) ([2]; 10 minutes): 8.4% and 8.3%
% Residual in plasma (BXA, calculated from BXM concentration at 0 min as molar concentration) ([2]; 20 min): 22.4%
% Residual in plasma Individual value (BXA, from BXM concentration at 0 minutes as molar concentration) ([2]; 20 minutes): 22.4%
% Residual in plasma (BXA, calculated from BXM concentration at 0 min as molar concentration) ([2]; 30 min): 38.1%
% Residual in plasma Individual value (BXA, from BXM concentration at 0 minutes as molar concentration) ([2]; 30 minutes): 38.4% and 37.8%
% Residual in plasma (BXA, calculated from BXM concentration at 0 min as molar concentration) ([3]; 10 min): 4.6%
% Residual in plasma Individual value (BXA, from BXM concentration at 0 minutes as molar concentration) ([3]; 10 minutes): 4.6% and 4.7%
% Residual in plasma (BXA, calculated from BXM concentration at 0 min as molar concentration) ([3]; 20 min): 13.9%
% Residual in plasma Individual value (BXA, from BXM concentration at 0 minutes as molar concentration) ([3]; 20 minutes): 13.8% and 14.1%
% Residual in plasma (BXA, calculated from BXM concentration at 0 min as molar concentration) ([3]; 30 min): 24.9%
% Residual in plasma Individual value (BXA, from BXM concentration at 0 minutes as molar concentration) ([3]; 30 minutes): 24.9% and 25.0%
% Residual in plasma (BXA, calculated from BXM concentration at 0 min as molar concentration) (Stability in plasma, rat; 10 min): 104.6%
% Residual in plasma Individual value (BXA, from BXM concentration at 0 minutes as molar concentration) (Stability in plasma, rat; 10 minutes): 102.8% and 106.3%
% Residual in plasma (BXA, calculated from BXM concentration at 0 min as molar concentration) (Stability in plasma, rat; 20 min): 104.0%
% Residual in plasma Individual value (BXA, from BXM concentration at 0 minutes as molar concentration) (Stability in plasma, rat; 20 minutes): 102.2% and 105.9%
% Residual in plasma (BXA, calculated from BXM concentration at 0 min as molar concentration) (Stability in plasma, rat; 30 min): 103.2%
% Residual in plasma Individual value (BXA, from BXM concentration at 0 minutes as molar concentration) (Stability in plasma, rat; 30 minutes): 103.0% and 103.4%
% Residual in plasma (BXA, calculated from BXM concentration at 0 min as molar concentration) (Stability in plasma, dog; 10 min): 2.8%
% Residual in plasma Individual value (BXA, from BXM concentration at 0 minutes as molar concentration) (Stability in plasma, dog; 10 minutes): 2.8%
% Residual in plasma (BXA, calculated from BXM concentration at 0 min as molar concentration) (Stability in plasma, dog; 20 min): 8.2%
% Residual in plasma Individual value (BXA, from BXM concentration at 0 minutes as molar concentration) (Stability in plasma, dog; 20 minutes): 8.1% and 8.2%
% Residual in plasma (BXA, calculated from BXM concentration at 0 min as molar concentration) (Stability in plasma, dog; 30 min): 15.6%
% Residual in plasma Individual value (BXA, from BXM concentration at 0 minutes as molar concentration) (Stability in plasma, dog; 30 minutes): 15.6%
% Residual in plasma (BXA, calculated from BXM concentration at 0 min as molar concentration) ([4]; 10 min): 9.0%
% Residual in plasma Individual value (BXA, from BXM concentration at 0 minutes as molar concentration) ([4]; 10 minutes): 8.9% and 9.1%
% Residual in plasma (BXA, calculated from BXM concentration at 0 min as molar concentration) ([4]; 20 min): 24.0%
% Residual in plasma Individual value (BXA, from BXM concentration at 0 minutes as molar concentration) ([4]; 20 minutes): 23.5% and 24.6%
% Residual in plasma (BXA, calculated from BXM concentration at 0 min as molar concentration) ([4]; 30 min): 43.0%
% Residual in plasma Individual value (BXA, from BXM concentration at 0 minutes as molar concentration) ([4]; 30 minutes): 44.0% and 42.1%
plasma concentration at 24 hours ([5]; BXM 10 mg): 15.1 (range 6.38‐29.0) ng/mL
plasma concentration at 24 hours ([5]; BXM 40 mg): 61.5 (range 27.9‐118) ng/mL
